Assays:
SKOV-3 WT = experiment: Endocytosis elucidation with chemical inhibitors prior to NP(DiD) treatment, flow cytometry; assay type: cell-based; settings: inhibitor before NP treatment
Experimental: (§1) FIG. 19 NP(DiD) uptake following 24 h exposure in OVCAR-3 (a) and SKOV-3 (b). Uptake quantification measured using corrected total cell fluorescence method and plotted for 24 (c), 48 (d) and 72 h (e) NP(DiD) treatments. Endocytosis elucidation conducted using chemical inhibitors, prior to NP(DiD) treatments and cells analyzed using flow cytometry. Example of cell population positive for NP8 in SKOV-3 WT (f) and endocytosis pathway distribution graphs for OVCAR-3 WT (g) and SKOV-3 (h).
Internalization and quantification of nanoparticles was characterized using fluorescently labelled nanoparticles, Vybrant DiD™ loaded particles were fabricated (co-dissolution as previously described) followed by spin filtration to remove non-encapsulated dye. 2D Cell cultures were treated with NP(DiD) for 24, 48 and 72 h. […] Corrected total cell fluorescence (CTCF) was calculated.[36] Microtissue penetration was conducted using the same fluorescently labelled NPs. Spheroids (2×10^3 cells) were seeded 48 h prior to use, 10 spheroids per NP were treated for 24 h with 20 μL stock NP(DiD).[37] […] Data was visualized using MATLAB code form CellStream exports to create violin plots of total populations. […] Nanoparticle, cell counter staining and imaging all conducted as described above. Uptake thresholding into binary high and low uptake conditions was conducted using quantification histograms and manual identification of population peaks.

OVCAR-3 WT = experiment: as above; assay type: cell-based; settings: inhibitor before NP treatment
Experimental: as §1
Internalization and quantification of nanoparticles was characterized using fluorescently labelled nanoparticles, Vybrant DiD™ loaded particles were fabricated (co-dissolution as previously described) followed by spin filtration to remove non-encapsulated dye. 2D Cell cultures were treated with NP(DiD) for 24, 48 and 72 h. 426 Cells were co-stained for nuclei using 16.2 μM Hoescht. Cells were imaged using CLSM or quantified following detachment using CellStream (A2 for DAPI channel, 428 B6 for DiD channel). Corrected total cell fluorescence (CTCF) was calculated.[36] Microtissue penetration was conducted using the same fluorescently labelled NPs. […] Uptake thresholding into binary high and low uptake conditions was conducted using quantification histograms and manual identification of population peaks.

Compound | increase in cell population positive for NPs (SKOV-3 WT) | increase in mean florescence (SKOV-3 WT) | drop in fluorescence (SKOV-3 WT) | drop in fluorescence (OVCAR-3 WT)
CCN(CC)CCCC(C)Nc1ccnc2cc(Cl)ccc12 (stereo not shown) [chloroquine] | 3% | 3×10^5 |  | 
NAV 2729 |  |  | 90% | 90%
